Drawing on US12509444B2, “Compounds and methods for CD73 modulation and indications therefor” (Plexxikon Inc., priority 2019, dated 2025), this text covers IC50 for 24 compounds.

The target of assay [1] is T1, Human CD73 (amino acid residues 27-549) (Homo sapiens, UniProt P21589).
T1 construct: Human CD73 (amino acid residues 27-549); His tag (N); made in house; host or cells: E. coli
T1 sequence (P21589 27-549): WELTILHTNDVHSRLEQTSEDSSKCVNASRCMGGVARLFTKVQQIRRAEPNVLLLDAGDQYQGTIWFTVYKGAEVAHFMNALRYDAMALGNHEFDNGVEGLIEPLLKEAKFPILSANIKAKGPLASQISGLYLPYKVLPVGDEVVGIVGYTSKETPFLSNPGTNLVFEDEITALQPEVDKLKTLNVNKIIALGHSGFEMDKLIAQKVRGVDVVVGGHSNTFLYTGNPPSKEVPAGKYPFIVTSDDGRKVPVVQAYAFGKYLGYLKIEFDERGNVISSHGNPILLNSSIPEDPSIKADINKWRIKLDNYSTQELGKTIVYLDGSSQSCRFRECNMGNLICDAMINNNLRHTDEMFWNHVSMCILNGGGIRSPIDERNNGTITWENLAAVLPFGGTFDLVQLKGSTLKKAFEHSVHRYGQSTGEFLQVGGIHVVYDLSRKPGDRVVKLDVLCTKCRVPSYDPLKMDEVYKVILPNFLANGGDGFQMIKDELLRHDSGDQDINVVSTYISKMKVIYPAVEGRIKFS
Nature of the assay: CD73 enzymatic assay (luciferase-based indirect assay, CellTiter-Glo). As to conditions: 0.4 nM CD73, 150 μM AMP, 1 hour at room temperature. It is filed as biochemical. The method, boiled down: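 His-tagged human CD73 (27-549) from E. coli, 0.4 nM, with 150 μM AMP in 50 mM HEPES pH 7.4, 0.01% Tween 20; 1 h at room temperature. AMP remaining read by CellTiter-Glo 2.0 luminescence with 1 μM final ATP after 30 min. IC50 from nonlinear regression of % inhibition.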
(Cellular ATP, detected with luciferase, serves as a proxy for viable cell number.)

The next assay addresses T2, human CD73 (Homo sapiens, UniProt P21589).
T2 construct: expressed in transfected cells
T2 sequence (P21589 27-549): T1 sequence (P21589 27-549)
Nature of the assay: Inhibitor activity against CD73 in cell based assay (CD73 expressing CHO-K1 cells). As to conditions: CHO-K1 cells expressing human CD73, 150 μM AMP, 4 hours of incubation; read-out: CHO-K1 CELL VARIANT: CD73 IC50. The method, boiled down: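 Stably transfected CHO-K1 cells expressing human CD73 (1×10^4/well) incubated 4 h with compound (8-point 1:3 titration, top 10 μM final, 0.2% DMSO) and 150 μM AMP. Residual AMP in supernatant measured by CellTiter-Glo luminescence with 1 μM ATP after 30 min at room temperature; IC50 by nonlinear regression of percent inhibition vs high/low controls.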

Usually IC50 stands for the concentration that gives 50% inhibition.

Consider `O=C(NC1(C(F)(F)F)CC1)O[C@@H]1CCN(c2cn[nH]c(=O)c2Cl)C1` [P-0134, (R)-1-(5-chloro-6-oxo-1,6-dihydropyridazin-4-yl)pyrrolidin-3-yl (1-(trifluoromethyl)cyclopropyl) carbamate], for which the IC50 (in assay [1]; on human CD73) was 0.001 to 10 µM each time.
In the case of `O=C(N[C@@H]1CCN(c2cn[nH]c(=O)c2Cl)C1)O[C@@H]1CCN(c2cn[nH]c(=O)c2Cl)C1` [P-0135, (R)-1-(5-chloro-6-oxo-1,6-dihydropyridazin-4-yl)pyrrolidin-3-yl ((R)-1-(5-chloro-6-oxo-1,6-dihydropyridazin-4-yl)pyrrolidin-3-yl)carbamate], the concentration for half-maximal inhibition (IC50) (in assay [1]; on human CD73) was 0.001 to 10 µM throughout.
Consider `O=C(N[C@H]1CCN(c2cn[nH]c(=O)c2Cl)C1)O[C@@H]1CCN(c2cn[nH]c(=O)c2Cl)C1` [P-0136, (R)-1-(5-chloro-6-oxo-1,6-dihydropyridazin-4-yl)pyrrolidin-3-yl ((S)-1-(5-chloro-6-oxo-1,6-dihydropyridazin-4-yl)pyrrolidin-3-yl)carbamate], for which the IC50 (in assay [1]; on human CD73) was 0.001 to 10 µM throughout.
As to `Cn1cc(C2(NC(=O)O[C@@H]3CCN(c4cn[nH]c(=O)c4Cl)C3)CC2)cn1` [P-0137, (R)-1-(5-chloro-6-oxo-1,6-dihydropyridazin-4-yl)pyrrolidin-3-yl (1-(1-methyl-1H-pyrazol-4-yl)cyclopropyl)carbamate], the IC50 (in assay [1]; on human CD73) was 0.001 to 10 µM throughout.
Take `CC1(OC(=O)NC2CCC(F)(F)CC2)CCN(c2cn[nH]c(=O)c2Cl)C1` (stereo not drawn) [P-0138, 1-(5-chloro-6-oxo-1,6-dihydropyridazin-4-yl)-3-methylpyrrolidin-3-yl (4,4-difluorocyclohexyl)carbamate]: the half-maximal inhibitory concentration (IC50) (in assay [1]; on human CD73) was 0.001 to 10 µM each time.
As to `C[C@H]1CN(c2cn[nH]c(=O)c2Cl)C[C@@H]1OC(=O)NC1CCC(F)(F)CC1` [P-0139, (3R,4S)-1-(5-chloro-6-oxo-1,6-dihydropyridazin-4-yl)-4-methylpyrrolidin-3-yl (4,4-difluorocyclohexyl)carbamate], the IC50 (in assay [1]; at human CD73) was 0.001 to 10 µM each time.
For `C[C@@H]1CN(c2cn[nH]c(=O)c2Cl)C[C@@H]1OC(=O)NC1CCC(F)(F)CC1` [P-0140, (3R,4R)-1-(5-chloro-6-oxo-1,6-dihydropyridazin-4-yl)-4-methylpyrrolidin-3-yl (4,4-difluorocyclohexyl)carbamate], the IC50 lay within 0.001 to 10 µM in assay [1] and 10 to 100 µM on human CD73.
As to `O=C(NC1CCC(F)(F)CC1)O[C@@H]1CN(c2cn[nH]c(=O)c2Cl)C[C@H]1F` [P-0141, (3R,4R)-1-(5-chloro-6-oxo-1,6-dihydropyridazin-4-yl)-4-fluoropyrrolidin-3-yl (4,4-difluorocyclohexyl)carbamate], the IC50 (in assay [1]; at human CD73) was 0.001 to 10 µM in each case.
Consider `CCCS(=O)(=O)N[C@H]1CC[C@H](NC(=O)O[C@@H]2CCN(c3cn[nH]c(=O)c3Cl)C2)CC1` [P-0142, (R)-1-(5-chloro-6-oxo-1,6-dihydropyridazin-4-yl)pyrrolidin-3-yl ((1r,4R)-4-(propylsulfonamido)cyclohexyl)carbamate], for which the IC50 (in assay [1]; on human CD73) was 0.001 to 10 µM each time.
Consider `O=C(NC1CCC(C(F)(F)F)CC1)O[C@@H]1CCN(c2cn[nH]c(=O)c2Cl)C1` (stereo partly drawn) [P-0143, (R)-1-(5-chloro-6-oxo-1,6-dihydropyridazin-4-yl)pyrrolidin-3-yl (4-(trifluoromethyl)cyclohexyl) carbamate], for which the IC50 (in assay [1]; on human CD73) was 0.001 to 10 µM throughout.
For the compound `CS(=O)(=O)N[C@H]1CC[C@H](NC(=O)O[C@@H]2CCN(c3cn[nH]c(=O)c3C#N)C2)CC1` [P-0144, (R)-1-(5-cyano-6-oxo-1,6-dihydropyridazin-4-yl)pyrrolidin-3-yl ((1r,4R)-4-(methylsulfonamido)cyclohexyl)carbamate], the IC50 (in assay [1]; at human CD73) was 0.001 to 10 µM in each case.
For the compound `N#Cc1c(N2CC[C@@H](OC(=O)NC3CCC(F)(F)CC3)C2)cn[nH]c1=O` [P-0145, (R)-1-(5-cyano-6-oxo-1,6-dihydropyridazin-4-yl)pyrrolidin-3-yl (4,4-difluorocyclohexyl)carbamate], the IC50 (in assay [1]; on human CD73) was 0.001 to 10 µM each time.
Take `O=C(NC1CCN(C(=O)NC2CC2)CC1)O[C@@H]1CCN(c2cn[nH]c(=O)c2Cl)C1` [P-0146, (R)-1-(5-chloro-6-oxo-1,6-dihydropyridazin-4-yl)pyrrolidin-3-yl (1-(cyclopropylcarbamoyl)piperidin-4-yl)carbamate]: the IC50 (in assay [1]; at human CD73) was 0.001 to 10 µM throughout.
Take `O=C(NC1CCN(C(=O)NC2CCCCC2)CC1)O[C@@H]1CCN(c2cn[nH]c(=O)c2Cl)C1` [P-0147, (R)-1-(5-chloro-6-oxo-1,6-dihydropyridazin-4-yl)pyrrolidin-3-yl (1-(cyclohexylcarbamoyl)piperidin-4-yl)carbamate]: the IC50 (in assay [1]; on human CD73) was 0.001 to 10 µM throughout.
As to `O=C(NC1CCN(C(=O)Nc2ccc(F)cc2)CC1)O[C@@H]1CCN(c2cn[nH]c(=O)c2Cl)C1` [P-0148, (R)-1-(5-chloro-6-oxo-1,6-dihydropyridazin-4-yl)pyrrolidin-3-yl (1-((4-fluorophenyl)carbamoyl)piperidin-4-yl)carbamate], the IC50 (in assay [1]; on human CD73) was 0.001 to 10 µM in each case.
For `NC(=O)N1CCC(NC(=O)O[C@@H]2CCN(c3cn[nH]c(=O)c3Cl)C2)CC1` [P-0149, (R)-1-(5-chloro-6-oxo-1,6-dihydropyridazin-4-yl)pyrrolidin-3-yl (1-carbamoylpiperidin-4-yl)carbamate], the IC50 (in assay [1]; at human CD73) was 0.001 to 10 µM throughout.
For `CS(=O)(=O)N1CCC(NC(=O)O[C@@H]2CCN(c3cn[nH]c(=O)c3Cl)C2)CC1` [P-0150, (R)-1-(5-chloro-6-oxo-1,6-dihydropyridazin-4-yl)pyrrolidin-3-yl (1-(methylsulfonyl)piperidin-4-yl)carbamate], the half-maximal inhibitory concentration (IC50) (in assay [1]; on human CD73) was 0.001 to 10 µM throughout.
As for `N#Cc1c(N2CC[C@@H](OC(=O)NC3CCN(C4CCCC4)CC3)C2)cn[nH]c1=O` [P-0151, (R)-1-(5-cyano-6-oxo-1,6-dihydropyridazin-4-yl)pyrrolidin-3-yl (1-cyclopentylpiperidin-4-yl)carbamate], the IC50 (in assay [1]; on human CD73) was 0.001 to 10 µM throughout.
As to `O=C(N[C@H]1CC[C@H](NS(=O)(=O)C2CC2)CC1)O[C@@H]1CCN(c2cn[nH]c(=O)c2Cl)C1` [P-0152, (R)-1-(5-chloro-6-oxo-1,6-dihydropyridazin-4-yl)pyrrolidin-3-yl ((1r,4R)-4-(cyclopropanesulfonamido)cyclohexyl)carbamate], the IC50 (in assay [1]; at human CD73) was 0.001 to 10 µM each time.
With `O=C(N[C@H]1CC[C@H](NS(=O)(=O)NC2CCCC2)CC1)O[C@@H]1CCN(c2cn[nH]c(=O)c2Cl)C1` [P-0153, (R)-1-(5-chloro-6-oxo-1,6-dihydropyridazin-4-yl)pyrrolidin-3-yl ((1r,4R)-4-((N-cyclopentylsulfamoyl)amino)cyclohexyl)carbamate], the IC50 (in assay [1]; at human CD73) was 0.001 to 10 µM throughout.
On to `Cc1c(N2CC[C@@H](OC(=O)NC3CCC(F)(F)C3)C2)cn[nH]c1=O` (stereo partly drawn) [P-0154, (R)-1-(5-methyl-6-oxo-1,6-dihydropyridazin-4-yl)pyrrolidin-3-yl (3,3-difluorocyclopentyl)carbamate], for which the IC50 (in assay [1]; at human CD73) was 0.001 to 10 µM each time.
`Cn1ncc(N2CC[C@@H](OC(=O)NC3CCCC3)C2)c(Cl)c1=O` [P-0155, (R)-1-(5-chloro-1-methyl-6-oxo-1,6-dihydropyridazin-4-yl)pyrrolidin-3-yl cyclopentylcarbamate]: the IC50 (in assay [1]; on human CD73) was 0.001 to 10 µM throughout.
Turning to `NC(=O)N[C@H]1CC[C@H](NC(=O)O[C@@H]2CCN(c3cn[nH]c(=O)c3Cl)C2)CC1` [P-0156, (R)-1-(5-chloro-6-oxo-1,6-dihydropyridazin-4-yl)pyrrolidin-3-yl ((1r,4R)-4-ureidocyclohexyl)carbamate], the IC50 (in assay [1]; on human CD73) was 0.001 to 10 µM in each case.
For `O=CN[C@H]1CC[C@H](NC(=O)O[C@@H]2CCN(c3cn[nH]c(=O)c3Cl)C2)CC1` [P-0157, (R)-1-(5-chloro-6-oxo-1,6-dihydropyridazin-4-yl)pyrrolidin-3-yl ((1r,4R)-4-formamidocyclohexyl) carbamate], the IC50 (in assay [1]; at human CD73) was 0.001 to 10 µM in each case.
